Measured values as given in the METLIN SMRT retention time set (Domingo-Almenara et al. 2019).

Assay: gradient 5% acetonitrile 3 min, to 50% in 2 min, to 85% in 15 min, held 3 min, 100 µL/min
Conditions: column: Zorbax Extend-C18 2.1 x 50 mm; eluents: water / acetonitrile, 0.1% formic acid
How it was run: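 Data were gathered over 3 months by HPLC coupled to a quadrupole time-of-flight mass spectrometer, operated in positive and negative ionization mode. Mixtures of ~100 pure standards ran on a Zorbax Extend-C18 column (2.1 × 50 mm, 1.8 μm) at 100 μL/min, with water and acetonitrile each containing 0.1% formic acid and dead and dwell volumes of 40 μL and 900 μL. Retention time was read from adduct peaks picked by computer and checked manually.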

Structure (SMILES) | RP-LC retention time [s]
CCOC(=O)c1c(-c2ccccc2)csc1NC(=O)c1ccccc1C(=O)O | 963
O=C(c1ccsc1)N1CCC(c2nncn2Cc2ccccc2)CC1 | 663
COc1ccc(-c2noc(Cc3nc(-c4ccc(Cl)cc4)cs3)n2)cc1 | 1270
COc1ncc(C(=O)NC(C)c2ccc(F)cc2)cn1 (stereo not drawn) | 756
COc1ccc(OC)c(NC(=O)N2CCC(N3CCN(Cc4ccc(C)cc4)C(=O)C3=O)CC2)c1 | 758
Cc1cccc(S(=O)(=O)N2CCC(OCc3nc(C)no3)CC2)c1 | 886
O=C(NC1CCCCC1)C1CCCN(S(=O)(=O)c2c[nH]c(C(=O)N3CCCC3)c2)C1 (stereo not drawn) | 759
O=c1n(Cc2ccc3c(c2)OCO3)nc2c(S(=O)(=O)N3CCCCCC3)cccn12 | 921
COc1cccc2cc(C(=O)NCCn3nc(-c4cccs4)ccc3=O)oc12 | 676
O=C(Nc1cc(F)ccc1F)Nc1c(-c2ccc(F)cc2)nc2ccccn12 | 706
Cc1ccc(-n2cc3c(N4CCCC(C(=O)NC(C)c5ccc(C)cc5C)C4)ncnc3n2)cc1 (stereo not drawn) | 814
CCc1nc(-c2csc(S(=O)(=O)N3CCC(C(=O)Nc4ccc(C)cn4)CC3)c2)no1 | 799
O=C1NCCCCCN(C(=O)c2ccc(Cn3cncn3)o2)[C@H]2CCC[C@@H]12 | 608
CCOCCn1c(=O)c2c(nc3n2CC(C)CN3c2ccc(OC)cc2)n(C)c1=O (stereo not drawn) | 853
CC(C)CCNC(=O)NCCn1nnc2cc(C(=O)N3CCCC3)ccc21 | 657
COC(=O)CNC(=O)C1COc2ccc(NC(=O)c3ccc(Cl)cc3)cc2C1 (stereo not drawn) | 794
Cc1nn(C)cc1C(=O)N(Cc1ccccc1)c1ccccn1 | 674
CCS(=O)(=O)N1CC(=O)N(c2ccc(F)cc2)C(C)(C(=O)NC2CCCCCCC2)C1 (stereo not drawn) | 938
CN(C)[C@@H]1CN(C(=O)c2ccc(Br)cc2F)C[C@H]1CO | 581
Cc1ccccc1Nc1c(-c2ccccc2)nc2cccc(C)n12 | 750
CC(=O)Nc1cc(C(=O)NCc2nn(Cc3ccccc3)c3ccccc23)ccc1C | 794
CCCCn1cc(S(=O)(=O)Nc2ccc(F)c(C)c2)c2cccnc21 | 995

Structure (SMILES) | RP-LC retention time [s]
CC(=O)N1CCCSc2ccc(S(=O)(=O)N(C)c3ccc(C)c(C)c3)cc21 | 1030
Cc1ccc(Nc2c(-c3ccc(N4CCOCC4)cc3)nc3cccc(C)n23)cc1 | 746
O=C(CN1CCN(Cc2ccccc2)C1=O)NCc1ccc(F)cc1Cl | 833
Cc1ccc(CN2CCN(C(=O)C3CCc4nc(N5CCOCC5)ncc4C3)CC2)cc1C (stereo not drawn) | 623
Cc1cc(C)c(S(=O)(=O)NCCn2c(C)cnc2C2CC2)c(C)c1 | 647
CCc1nnc2ccc(-c3noc(-c4ccccc4)n3)cn12 | 906
Cc1ccc(CNC(=O)c2nnc(-c3ccc(S(=O)(=O)N(C)C)cc3)o2)cc1 | 892
CC(=O)c1ccc(NC(=O)Cn2c(N3CCc4ccccc4C3)nc(C)cc2=O)cc1 | 727
Cc1cc(F)ccc1NC(=O)CN1C(=O)NC2(CCCCC2)C1=O | 764
Cc1ccccc1CNC(=O)C1CCN(S(C)(=O)=O)c2cc(Cl)ccc2O1 (stereo not drawn) | 975
Cn1nc(COc2ccccc2)c2c1CCN(C(=O)Nc1ccccc1Cl)C2 | 889
CC(C)NC(=O)CC1Sc2ncccc2N(C)C1=O (stereo not drawn) | 604
CC1=C(c2ccc(C)c(C)c2)S(=O)(=O)N=C1N1CCC(NC(=O)NC(C)(C)C)CC1 | 1350
Cc1noc2ncnc(N3CCCC(C(=O)N4CCN(c5ccc(F)cc5)CC4)C3)c12 (stereo not drawn) | 846
COc1ccccc1CNC(=O)C1CCCN(c2nnc(C)c3c(C)n(-c4ccccc4)nc23)C1 (stereo not drawn) | 725
CCN1CCCn2nc(C3CCN(C(=O)c4ccc5c(c4)OCO5)CC3)cc2C1=O | 628
O=C(c1cnccn1)N1CCCn2nc(-c3cccc(Cl)c3)cc2C1 | 767
CCOC(=O)C1C(=O)C=C(c2ccc(OC)c(OC)c2)CC1c1cccc(OC)c1OC (stereo not drawn) | 923
C[C@H]1CN(S(=O)(=O)c2ccccc2)C[C@@H]1c1nc(-c2ccncc2)no1 | 871
CNC(=O)c1ccc(-c2nc3cc(NS(=O)(=O)c4cnc[nH]4)ccc3n2C)cc1 | 548
O=C(c1ccccc1)N1CCN(c2nnc3ccccn23)CC1 | 608
CCC1CCCCN1C(=O)c1ccc(-c2nnc3ccc(NC(=O)C4CCC4)cn23)cc1 (stereo not drawn) | 870

Structure (SMILES) | RP-LC retention time [s]
Cn1cc(SCC(=O)NCc2ccco2)c2ccccc21 | 778
COc1ccc(N2CC(c3noc(-c4cc(F)cc(F)c4)n3)CC2=O)cc1OC (stereo not drawn) | 899
CCOc1ccc(S(=O)(=O)N2CCC(C(=O)NCCO)CC2)cc1C | 699
CN(C)C(=O)Cn1c(=O)c2cccn2c2ccc(F)cc21 | 690
CCOC(=O)C(=O)Nc1ccc(SCc2nnc(-c3ccc4c(c3)OCO4)o2)cc1 | 866
Cc1nc(Nc2ncc3c(n2)CC(c2ccc(F)cc2)CC3=O)nc2ccccc12 (stereo not drawn) | 756
CCC1CCCCN1C(=O)c1cnc2nc(C)ccc2c1Nc1cc(C)cc(C)c1 (stereo not drawn) | 722
CCc1ccc(OCC(=O)Nc2ccc(S(N)(=O)=O)cc2)c(Br)c1 | 836
CC(C)Cn1c(=O)c(N2CCN(S(=O)(=O)c3ccccc3)CC2)nc2ccncc21 | 612
O=C(Cn1nc(N2CCCCCC2)c2ccccc2c1=O)Nc1ccc(Cl)cc1 | 1160
CC(=O)c1ccc(NC(=O)CN2C(=O)NC3(CCCCC3)C2=O)cc1 | 717
CCC(=O)N1CCc2sc(S(=O)(=O)NCc3ccc4c(c3)OCO4)cc2C1 | 773
Cc1nn(C)c(C)c1S(=O)(=O)N1CCC2(CC1)c1[nH]c3ccccc3c1CCN2C | 668
COc1ccc(-c2noc(N3CCC(C(=O)NCCN4CCOCC4)CC3)n2)cc1OC | 591
COc1ccc(OC)c(NC(=O)Cn2c(C)cc(-c3nnc(C4CCC4)o3)c2C)c1 | 924
CC(C)CC(=O)Nc1ccc(-n2cnc(C(=O)N3CCC4(CC3)OCCO4)c2)nc1 | 677
COc1ccc(-c2csc(NC(=O)Cc3csc(C)n3)n2)cc1 | 828
CCOC(=O)N1CCc2nc(NC(=O)c3ccc([N+](=O)[O-])s3)sc2C1 | 792
Cc1ccccc1CNC(=O)C1(C)CCCN(C(=O)Nc2ccc3c(c2)OCCO3)C1 (stereo not drawn) | 846
O=C(c1cccc(Nc2c(-c3ccc(Cl)cc3)nc3cnccn23)c1)N1CCOCC1 | 719
CCc1ccc(OCc2nc(C)c(C(=O)Nc3nc(-c4ccccc4OC)cs3)s2)cc1 | 1310
COC(=O)c1ccc2c(=O)n(-c3ccc(OC)c(OC)c3)c(N3CCOCC3)nc2c1 | 800

Structure (SMILES) | RP-LC retention time [s]
Cc1ccc(Sc2nccnc2N2CCCC(C(=O)NCc3ccccc3Cl)C2)cc1 (stereo not drawn) | 1150
CC(C)Oc1ccc(-c2noc(Cn3c(=O)n(-c4ccccc4)c(=O)c4sccc43)n2)cc1 | 1100
COCCCNC(=O)CC1CCN(C(=O)c2[nH]c(C)c(C)c2C)CC1 | 667
Cc1cc(=O)n(CC(=O)NCCc2ccc(Cl)cc2)c(N2CCOCC2)n1 | 701
CCC(=O)N1CCc2cc(-c3ccc(C(=O)NC(C)C)cc3)ccc21 | 832
Cc1ccc(-c2nc(-c3ccc(-n4cccn4)nc3)no2)cc1 | 1330
COc1ccc(C)cc1NC(=O)Cc1csc2nc(-c3cccc(Br)c3)cn12 | 1060
O=C(NCc1ccccc1Cl)c1c[nH]c2ncccc12 | 708
CCn1ccc2cc(S(=O)(=O)N3CCCC(C(=O)NCCc4ccco4)C3)ccc21 (stereo not drawn) | 925
Cc1[nH]c(-c2ccccc2)cc1C(=O)NC1CCCC1 | 845
Cc1sc(-c2cc(C(F)(F)F)on2)cc1S(=O)(=O)Nc1ccc(F)cc1 | 1120
O=C(CN1C(=O)c2ccccc2C1=O)Nc1nnc(-c2ccc3c(c2)CCCC3)o1 | 856
O=C(N[C@@H]1CN(Cc2cc(F)c(F)cc2F)C[C@H]1CO)C1CCC1 | 599
O=C(C1CCN(c2nc3ccc(-c4cccs4)nc3s2)CC1)N1CCCC1 | 893
COc1ccc(Nc2c(-c3ccc(Cl)cc3)nc3cnccn23)cc1OC | 828
COc1cc(OC)c(NC(=O)Nc2cc(C)on2)cc1Cl | 865
O=C(Nc1ccc(F)c(Cl)c1)c1c(O)c2cccnc2n(Cc2ccccc2)c1=O | 1230
Cc1cc(=O)n(CC(=O)N2CCc3ccccc32)c(N2CCCCC2)n1 | 679
COc1cc(OC)cc(C(=O)N(C)CCc2noc(C3CCCCC3)n2)c1 | 926
CCOc1ccc(NS(=O)(=O)c2cc(C(=O)N3CCN(c4ccc(F)cc4)CC3)n[nH]2)cc1 | 876
COc1ccc(CNC(=O)C2CCCN(S(=O)(=O)c3cc(-c4noc(C)n4)cs3)C2)cc1 (stereo not drawn) | 1040
CCOC(=O)c1cnc2c(C)c(Cl)ccc2c1NCCN(C)C | 562
